# Measurements published in patent publication US20090105218A1, “CRTH2 Receptor Ligands For Therapeutic Use” (7TM PHARMA A/S, priority 2004, published 2009).
# Target: T1, human CRTH2 receptor (Homo sapiens, UniProt Q9Y5Y4, V204A)
# T1 construct: expressed in transfected cells; host or cells: COS-7 (transient transfection)
# T1 sequence (Q9Y5Y4 1-395 V204A): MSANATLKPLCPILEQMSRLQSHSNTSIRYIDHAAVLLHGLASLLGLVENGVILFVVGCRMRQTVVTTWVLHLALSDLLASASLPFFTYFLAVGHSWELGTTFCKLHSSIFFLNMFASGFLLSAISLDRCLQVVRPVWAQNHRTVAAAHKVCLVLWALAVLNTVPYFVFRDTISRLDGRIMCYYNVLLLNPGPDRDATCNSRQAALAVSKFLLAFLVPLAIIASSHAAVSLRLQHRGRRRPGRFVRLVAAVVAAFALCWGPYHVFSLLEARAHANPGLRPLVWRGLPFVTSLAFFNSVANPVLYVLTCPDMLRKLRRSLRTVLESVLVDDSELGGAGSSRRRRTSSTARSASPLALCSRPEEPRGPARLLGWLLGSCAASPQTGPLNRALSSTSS
# Assay: CRTH2 receptor binding assay ([3H]PGD2 competition on whole transfected cells)
# Settings: competition binding with 0.1 nM [3H]PGD2, whole cells expressing CRTH2, 3 h at 4° C.
# Text: Generation/origin of the cDNA Constructs. The coding sequence of the human CRTH2 receptor (genbank accession no NM_004778) was amplified by PCR from a human hippocampus cDNA library and inserted into the pcDNA3.1(+) expression vector (invitrogen) via 5′ HindIII and 3′ EcoRI. The sequence identity of the construct was verified by restriction endonuclease digests and sequencing in both directions on an ABI Prism (Applied Biosystems, Foster City, Calif.).
# Cell Culture and Transfection. COS-7 cells were grown in Dulbecco's modified Eagle's medium (DMEM) 1885 supplemented with 10% fetal bovine serum, 100 units/ml penicillin, […] streptomycin, and kept at 37° C. in a 10% CO2 atmosphere. HEK293 cells were maintained in Minimum Essential medium (MEM) supplemented with 10% (v/v) heat inactivated fetal calf serum (HIFCS), 2 mM Glutamax™-I, 1% non essential amino acids (NEAA), 1% sodium pyruvate and 10 μg/ml gentamicin. For binding experiments, COS7 cells were transiently transfected with the CRTH2 receptor using a calcium phosphate-DNA coprecipitation method with the addition of chloroquine (as described by Holst B, Hastrup H, Raffetseder U, Martini L, Schwartz T W. J Biol. Chem. 2001 Jun. 8; 276(23):19793-9.)
# Binding assay. 24 h after transfection COS-7 cells were seeded into 96 well plates at a density of 30.000 cells/well. Competition binding experiments on whole cells were then performed about 18-24 h later using 0.1 nM [^3H]PGD2 (NEN, 172 Ci/mmol) in a binding buffer consisting of HBSS (GIBCO) and 10 mM HEPES. Competing ligands were diluted in DMSO which was kept constant at 1% (v/v) of the final incubation volume. Total and nonspecific binding were determined in the absence and presence of 10 μM PGD2. Binding reactions were routinely conducted for 3 h at 4° C. and terminated by 2 washes (100 μl each) with ice cold binding buffer. Radioactivity was determined by liquid scintillation counting in a TOPCOUNTER (Packard) following over night incubation in Microscint 20. Stable HEK293 cells were seeded at a density of 30.000 cells/well 18-24 h prior to the binding assay which was performed essentially as described for COS7 cells above. Determinations were made in duplicates.
# Curve analysis was performed with the GraphPadPrism software 3.0 (Graphpad Prism Inc., San Diego, USA) and IC50 values were calculated as a measure of the antagonistic potencies.
row,SMILES,IC50
1,O=C(Nc1ccccc1C(=O)O)c1cccc(S(=O)(=O)Nc2ccc(Br)cc2)c1 [B55],< 500 nM
2,CCOc1ccc(NS(=O)(=O)c2cc(C(=O)Nc3ccccc3C(=O)O)ccc2C)cc1 [B64],500 to 5000 nM
3,CC(=O)c1ccc(NS(=O)(=O)c2cc(C(=O)Nc3ccccc3C(=O)O)ccc2C)cc1 [B65],> 5000 nM
4,O=C(Nc1ccccc1C(=O)O)c1cccc(S(=O)(=O)NC2CCCCC2)c1 [B66],500 to 5000 nM
5,O=C(Nc1ccccc1C(=O)O)c1cc(S(=O)(=O)N2CCOCC2)ccc1Cl [B67],> 5000 nM
6,O=C(Nc1ccccc1C(=O)O)c1cccc(S(=O)(=O)N2CCOCC2)c1 [B68],> 5000 nM
7,CCN(CC)S(=O)(=O)c1cc(C(=O)Nc2ccccc2C(=O)O)ccc1Br [B69],500 to 5000 nM
8,Cc1ccc(C(=O)Nc2ccccc2C(=O)O)cc1S(=O)(=O)N1CCOCC1 [B71],500 to 5000 nM
9,Cc1ccc(C(=O)Nc2ccccc2C(=O)O)cc1S(=O)(=O)NC1CCCCC1 [B73],500 to 5000 nM
10,O=C(Nc1ccccc1C(=O)O)c1cccc(S(=O)(=O)N2CCCC2)c1 [B74],> 5000 nM
11,Cc1ccc(C(=O)Nc2ccccc2C(=O)O)cc1S(=O)(=O)N1CCCCCC1 [B75],500 to 5000 nM
12,CCN(CC)S(=O)(=O)c1cc(C(=O)Nc2ccccc2C(=O)O)ccc1OC [B76],500 to 5000 nM
13,O=C(Nc1ccccc1C(=O)O)c1cc(S(=O)(=O)N2CCCCCC2)ccc1Cl [B77],500 to 5000 nM
14,Cc1ccc(S(=O)(=O)N2CCOCC2)cc1C(=O)Nc1ccccc1C(=O)O [B78],> 5000 nM
15,O=C(Nc1ccccc1C(=O)O)c1cc(S(=O)(=O)N2CCCC2)ccc1Cl [B79],500 to 5000 nM
16,O=C(Nc1ccccc1C(=O)O)c1cc(S(=O)(=O)N2CCCC2)c(Cl)cc1Cl [B80],500 to 5000 nM
17,O=C(Nc1ccccc1C(=O)O)c1cccc(S(=O)(=O)N2CCCCC2)c1 [B81],500 to 5000 nM

# Second part, the compound after the results:
row,IC50,SMILES
1,< 500 nM,O=C(CSCc1ccccc1)Nc1cccc(C(=O)Nc2ccccc2C(=O)O)c1 [B42]
2,< 500 nM,O=C(Nc1cccc(C(=O)Nc2ccccc2C(=O)O)c1)c1ccc(I)cc1 [B43]
3,500 to 5000 nM,O=C(Nc1ccc(O)cc1C(=O)O)c1cccc(NC(=O)c2ccco2)c1 [B44]
4,500 to 5000 nM,O=C(Nc1ccc(C(=O)Nc2ccccc2C(=O)O)cc1)c1ccc(Br)cc1 [B45]
5,500 to 5000 nM,Cc1ccc(NS(=O)(=O)c2cccc(C(=O)Nc3ccccc3C(=O)O)c2)cc1 [B46]
6,500 to 5000 nM,O=C(Nc1ccccc1C(=O)O)c1cccc(S(=O)(=O)Nc2ccccc2)c1 [B47]
7,500 to 5000 nM,COc1ccc(NS(=O)(=O)c2cccc(C(=O)Nc3ccccc3C(=O)O)c2)cc1 [B48]
8,500 to 5000 nM,O=C(Nc1ccccc1C(=O)O)c1ccc(Br)c(S(=O)(=O)NCc2ccccc2)c1 [B50]
9,500 to 5000 nM,COc1ccc(NS(=O)(=O)c2cc(C(=O)Nc3ccccc3C(=O)O)ccc2C)cc1 [B51]
10,< 500 nM,Cc1ccc(C(=O)Nc2ccccc2C(=O)O)cc1S(=O)(=O)Nc1ccc(Br)cc1 [B52]
11,500 to 5000 nM,Cc1ccccc1NS(=O)(=O)c1cccc(C(=O)Nc2ccccc2C(=O)O)c1 [B53]
12,< 500 nM,O=C(Nc1ccccc1C(=O)O)c1ccc(Br)c(S(=O)(=O)Nc2ccc(Br)cc2)c1 [B54]
13,500 to 5000 nM,Cc1cccc(NS(=O)(=O)c2ccc(Cl)c(C(=O)Nc3ccccc3C(=O)O)c2)c1 [B57]
14,500 to 5000 nM,O=C(Nc1ccccc1C(=O)O)c1cc(S(=O)(=O)Nc2ccc(Br)cc2)ccc1Cl [B58]
15,< 500 nM,Cc1ccc(C(=O)Nc2ccccc2C(=O)O)cc1S(=O)(=O)Nc1ccc(I)cc1 [B59]
16,500 to 5000 nM,COc1ccccc1NS(=O)(=O)c1cccc(C(=O)Nc2ccccc2C(=O)O)c1 [B60]
17,500 to 5000 nM,CCOc1ccc(NS(=O)(=O)c2cccc(C(=O)Nc3ccccc3C(=O)O)c2)cc1 [B61]
18,< 500 nM,Cc1ccc(C(=O)Nc2ccccc2C(=O)O)cc1S(=O)(=O)Nc1cccc(Cl)c1 [B62]
19,500 to 5000 nM,Cc1ccc(C(=O)Nc2ccccc2C(=O)O)cc1S(=O)(=O)Nc1ccc(F)cc1 [B63]
20,< 500 nM,O=C(Nc1ccccc1C(=O)O)c1cc(S(=O)(=O)N2CCCCC2)c(Cl)cc1Cl [B70]
21,< 500 nM,Cc1ccc(C(=O)Nc2ccccc2C(=O)O)cc1S(=O)(=O)N1CCCCC1 [B72]
